Test results from publication PMC4447455, “Towards Elucidating Carnosic Acid Biosynthesis in Lamiaceae: Functional Characterization of the Three First Steps of the Pathway in Salvia fruticosa and Rosmarinus officinalis” (PLoS ONE, 2015).

Legend:
SfKSL [1] = biological target: T1, SfKSL (Salvia fruticosa, UniProt A0A0C5QH30); experiment: coupled assay with SfCPS, GC-MS; NMR of product from yeast; format: biochemical; conditions: CDP formed in situ by SfCPS from 200 uM GGDP; pH 7.0, 20 mM MgCl2, 0.2 mM MnCl2, room temperature overnight
T1 construct: gene KSL; pseudomature SfKSLm without predicted N-terminal transit peptide (49 residues); full ORF 1755 bp; lacks gamma domain
T1 sequence (A0A0C5QH30 50-584): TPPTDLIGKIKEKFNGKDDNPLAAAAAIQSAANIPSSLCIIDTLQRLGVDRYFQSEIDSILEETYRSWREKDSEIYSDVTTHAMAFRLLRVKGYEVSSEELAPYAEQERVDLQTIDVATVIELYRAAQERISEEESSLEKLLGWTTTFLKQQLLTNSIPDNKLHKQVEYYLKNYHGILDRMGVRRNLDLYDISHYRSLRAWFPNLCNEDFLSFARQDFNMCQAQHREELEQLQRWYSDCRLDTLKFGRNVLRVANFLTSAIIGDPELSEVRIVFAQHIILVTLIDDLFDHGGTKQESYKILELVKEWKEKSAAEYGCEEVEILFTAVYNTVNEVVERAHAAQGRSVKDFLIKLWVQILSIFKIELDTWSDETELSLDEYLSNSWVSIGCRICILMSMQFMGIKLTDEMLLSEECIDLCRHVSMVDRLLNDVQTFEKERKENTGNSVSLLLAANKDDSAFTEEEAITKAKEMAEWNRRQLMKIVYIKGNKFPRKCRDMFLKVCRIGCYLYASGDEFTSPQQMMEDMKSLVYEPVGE

RoFS2 = biological target: T2, RoFS2 (Salvia rosmarinus, UniProt A0A0C5QEW3); experiment: yeast co-expression, GC-MS; format: cell-based; conditions: co-expressed RoCPS1m, RoKSL1f, PtCPR2; also shown in N. benthamiana
T2 construct: gene FS2; P450 ORF in pWTDH3, expressed in S. cerevisiae AM113 with RoCPS1m, RoKSL1f and poplar reductase PtCPR2; also N. benthamiana with SfCPS, SfKSL, AtCPR1
T2 sequence (A0A0C5QEW3 entry or part of it): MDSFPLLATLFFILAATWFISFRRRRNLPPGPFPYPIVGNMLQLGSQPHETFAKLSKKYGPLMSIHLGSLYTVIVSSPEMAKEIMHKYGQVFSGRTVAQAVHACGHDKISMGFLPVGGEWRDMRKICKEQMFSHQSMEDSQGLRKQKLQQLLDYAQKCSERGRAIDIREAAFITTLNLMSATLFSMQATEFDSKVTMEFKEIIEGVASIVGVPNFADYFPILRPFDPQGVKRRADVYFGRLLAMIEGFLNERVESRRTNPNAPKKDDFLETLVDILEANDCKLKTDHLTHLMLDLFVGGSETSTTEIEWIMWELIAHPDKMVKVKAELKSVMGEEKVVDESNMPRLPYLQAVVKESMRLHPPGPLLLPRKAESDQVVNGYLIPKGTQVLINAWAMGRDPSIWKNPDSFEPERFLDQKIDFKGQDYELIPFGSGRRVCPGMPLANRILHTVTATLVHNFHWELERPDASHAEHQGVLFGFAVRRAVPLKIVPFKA

RoFS1 = biological target: T3, RoFS1 (Salvia rosmarinus, UniProt A0A0C5Q4Y6); experiment: yeast co-expression, GC-MS; format: cell-based; conditions: co-expressed RoCPS1m, RoKSL1f, PtCPR2; also shown in N. benthamiana
T3 construct: gene CYP76AH22; P450 ORF in pWTDH3, expressed in S. cerevisiae AM113 with RoCPS1m, RoKSL1f and poplar reductase PtCPR2; also N. benthamiana with SfCPS, SfKSL, AtCPR1
T3 sequence (A0A0C5Q4Y6 1-493): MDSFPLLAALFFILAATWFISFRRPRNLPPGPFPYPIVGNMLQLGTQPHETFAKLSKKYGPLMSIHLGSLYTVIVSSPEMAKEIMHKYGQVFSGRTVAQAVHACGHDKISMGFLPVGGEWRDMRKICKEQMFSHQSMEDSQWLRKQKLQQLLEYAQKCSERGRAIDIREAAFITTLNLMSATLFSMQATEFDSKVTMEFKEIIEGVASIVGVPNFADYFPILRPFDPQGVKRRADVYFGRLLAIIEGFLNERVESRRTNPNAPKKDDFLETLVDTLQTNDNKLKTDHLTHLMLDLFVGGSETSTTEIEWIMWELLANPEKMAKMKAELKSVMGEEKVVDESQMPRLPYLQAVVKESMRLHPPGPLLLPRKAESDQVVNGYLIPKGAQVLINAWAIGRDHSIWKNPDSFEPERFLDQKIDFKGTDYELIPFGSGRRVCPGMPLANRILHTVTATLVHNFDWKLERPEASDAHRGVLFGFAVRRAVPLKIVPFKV

SfFS = biological target: T4, SfFS (Salvia fruticosa, UniProt A0A0C5QRZ2); experiment: yeast co-expression, GC-MS; format: cell-based; conditions: co-expressed SfCPS, SfKSL, PtCPR2; also shown in N. benthamiana
T4 construct: gene CYP76AH24; P450 ORF in pWTDH3, expressed in S. cerevisiae AM104 with SfCPSm, SfKSLm and poplar reductase PtCPR2; also N. benthamiana with AtCPR1
T4 sequence (A0A0C5QRZ2 1-492): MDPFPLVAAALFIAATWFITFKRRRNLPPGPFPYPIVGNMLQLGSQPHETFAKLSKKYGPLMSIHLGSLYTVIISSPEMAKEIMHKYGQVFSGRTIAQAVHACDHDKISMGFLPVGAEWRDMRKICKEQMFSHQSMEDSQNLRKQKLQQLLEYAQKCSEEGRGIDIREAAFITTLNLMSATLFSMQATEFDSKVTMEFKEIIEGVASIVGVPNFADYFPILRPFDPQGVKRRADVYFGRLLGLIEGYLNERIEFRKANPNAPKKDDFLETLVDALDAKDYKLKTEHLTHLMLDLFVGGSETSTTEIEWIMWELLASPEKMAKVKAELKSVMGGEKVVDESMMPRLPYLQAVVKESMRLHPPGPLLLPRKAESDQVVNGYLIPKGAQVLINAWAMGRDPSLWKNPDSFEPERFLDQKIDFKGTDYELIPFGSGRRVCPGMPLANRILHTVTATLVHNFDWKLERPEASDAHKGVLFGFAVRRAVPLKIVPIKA

SfCPS = biological target: T5, SfCPS (Salvia fruticosa, UniProt A0A0A7RQ84); experiment: GC-MS of dephosphorylated product (copalol); format: biochemical; conditions: pH 7.0, 20 mM MgCl2, 0.2 mM MnCl2, 60 uM GGDP, room temperature overnight
T5 construct: gene CDS; pseudomature SfCPSm without predicted N-terminal transit peptide (30 residues); full ORF 2391 bp
T5 sequence (A0A0A7RQ84 entry or part of it): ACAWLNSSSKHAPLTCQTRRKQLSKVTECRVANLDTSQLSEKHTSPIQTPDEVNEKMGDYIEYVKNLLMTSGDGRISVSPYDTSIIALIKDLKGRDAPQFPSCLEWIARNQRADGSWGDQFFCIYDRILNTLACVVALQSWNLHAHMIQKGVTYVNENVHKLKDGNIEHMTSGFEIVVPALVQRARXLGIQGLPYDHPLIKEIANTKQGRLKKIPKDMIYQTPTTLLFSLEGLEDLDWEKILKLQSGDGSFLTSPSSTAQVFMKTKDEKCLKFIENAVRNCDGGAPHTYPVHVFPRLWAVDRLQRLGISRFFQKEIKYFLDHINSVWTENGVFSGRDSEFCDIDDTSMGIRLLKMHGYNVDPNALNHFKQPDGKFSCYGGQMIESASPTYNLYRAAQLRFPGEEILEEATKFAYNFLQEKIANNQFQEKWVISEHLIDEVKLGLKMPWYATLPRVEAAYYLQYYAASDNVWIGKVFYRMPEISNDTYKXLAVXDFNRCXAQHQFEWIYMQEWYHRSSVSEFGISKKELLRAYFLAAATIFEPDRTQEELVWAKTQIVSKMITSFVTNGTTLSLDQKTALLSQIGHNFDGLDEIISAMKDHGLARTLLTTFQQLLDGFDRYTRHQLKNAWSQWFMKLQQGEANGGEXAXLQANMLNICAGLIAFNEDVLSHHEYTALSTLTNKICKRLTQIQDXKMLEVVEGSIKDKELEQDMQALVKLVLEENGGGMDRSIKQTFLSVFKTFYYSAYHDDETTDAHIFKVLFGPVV

SfKSL [2] = biological target: T1, SfKSL; experiment: coupled assay with SfCPS, GC-MS of product; format: biochemical; conditions: CDP formed in situ by SfCPS from 200 uM GGDP; pH 7.0, 20 mM MgCl2, 0.2 mM MnCl2, room temperature overnight

CC(C)C1=CCC2=C(CC[C@H]3C(C)(C)CCC[C@]23C)C1 [miltiradiene]
coupled assay with SfCPS, GC-MS; NMR of product from yeast (SfKSL [1]): revealed a peak, which most closely corresponded to miltiradiene

CC(C)c1cc2c(cc1O)[C@@]1(C)CCCC(C)(C)[C@@H]1CC2 [ferruginol]
yeast co-expression, GC-MS (RoFS2): GC-MS revealed the formation of ferruginol in all three strains analyzed | yeast co-expression, GC-MS (RoFS1): GC-MS revealed the formation of ferruginol in all three strains analyzed | yeast co-expression, GC-MS (SfFS): GC-MS revealed the formation of ferruginol in all three strains analyzed

C=C1CC[C@H]2C(C)(C)CCC[C@]2(C)[C@H]1CC/C(C)=C/COP(=O)(O)OP(=O)(O)O [CDP]
GC-MS of dephosphorylated product (copalol) (SfCPS; detected as copalol after alkaline phosphatase): identify the dephosphorylated product of the SfCPS catalyzed reaction as copalol | coupled assay with SfCPS, GC-MS of product (SfKSL [2]): simultaneously with SfCPS in order to provide the necessary CDP substrate

CC(C)=CCC/C(C)=C/CC/C(C)=C/CC/C(C)=C/COP(=O)(O)OP(=O)(O)O [GGDP]
GC-MS of dephosphorylated product (copalol) (SfCPS): His-tagged SfCPS protein was affinity purified and incubated with GGDP
